Structures can show the parent of a compound that is named as a salt.
Key:
HCT115 ER-E2F1 cells = test: E2F1-induced apoptosis assay (ER-E2F1 activated by 4-OHT), FACS subG1; format: cell-based
Excerpt: Two assays were used to measure the compound's activity in induce apoptosis. The first assay measures the activity of compound to activate E2F1-induced apoptosis. In this assay, transcription factor E2F1 was engineered with ER receptor ligand binding domain. Addition of 4-OHT will be able to activate ER-E2F1 complex activity.
Fluorescence activated cell sorting (FACS) also known as flow cytometry is the technique used to determine apoptosis in this set of experiments. Apoptosis is indicated by cell populations with DNA content in the subG1 range. To determine the activity of these compounds, the inventors used HCT115 ER-E2F1 cells to determine the activity of the compound in inducing E2F1-dependent apoptosis. In this assay, addition of 4-OHT ligand will activate E2F1. DZNep has been show previously to activate OHT-induced apoptosis in this system.

[1] = test system: HCT-116 colorectal carcinoma xenograft; test: In vivo efficacy in mouse HCT-116 colorectal carcinoma xenograft model
Protocol: The in vivo efficacy and toxicity of D3 was evaluated in a mouse HCT-116 colorectal carcinoma xenograft model.
Female athymic BALB/c nude mice (ARC, West Australia), 18-20 weeks of age, are fed with sterilized tap water (ad libitum water) and irradiated standard rodent diet consisting of: 19% protein, 5% fat, and 5% fiber. Mice are housed in individual ventilated cages on 12-hour light cycle at 21-22° C. and 40-60% humidity. Biological Resource Centre, Biopolis (BRC) complies with the recommendations of the guide for care and use of Laboratory Animals with respect to restraint, husbandry, surgical procedures, feed and fluid regulation, and veterinary care. The animal cares and use program (#070276) at BRC was Institutional Animal Care and Use Committee (IACUC) accredited.
D3 was provided in powder form, dissolved in 10% DMSO in sterile 1×PBS and stored in −20° C. Every mouse will receive a dose of 30-60 mg per kilogram body weight by intraperitoneal injection (ip).
Mice were implanted subcutaneously in the left flank with 5×10^6 cells of HCT-116 parental human colon carcinoma. The tumors were allowed to grow for 8 days and thereafter monitored every 2-3 days by caliper.
On the day 1, nude mice were divided into 2 groups according to tumor volume to ensure tumor volume evenly distributed into each group. Each group comprised 7 animals. Drug treatment was initiated on day 1. D3 is administered ip at doses of 30 mg/kg for 7 days followed by 60 mg/kg for another 5 days on once-a-day basis. Another group of mice received receive only vehicle by ip route. […] The study was terminated on Day 14.
Estimated tumor volume was calculated using the formula:
Tumor volume (mm^3)=(w^2×l)/2
where w=width and l=length in mm of an HCT-116 carcinoma.
Compound efficacy was assessed by the tumor growth inhibition (TGI) method in which tumor volume of treatment groups are compared to the vehicle controls. The percent tumor growth inhibition (% TGI) is calculated as follows:
% TGI=[…]×100
where: • Cday 1=median tumor volume for the control group (vehicle) on day 1 • Cday a=median tumor volume for the control group (vehicle) on day a • Tday a=median tumor volume for a treatment group on day a Animals classified as NTRD (non-treatment-related deaths) were excluded from TGI calculations.
The two sample t-test was used to determine the statistical significance of body weight changes and tumor volumes between groups. Statistical analyses were conducted at a p level of 0.05. SPSS was used for all statistical analyses and graphic presentations.

[2] = Maximum tolerated dose in vivo; settings: compared to DZNep

SMILES	ability to cause apoptosis in the induction of E2F1-dependent apoptosis (HCT115 ER-E2F1 cells; compared with DZNep)	E2F1 Induced apoptosis (+4-OHT) % Apoptosis (HCT115 ER-E2F1 cells; with 4-OHT (value in parentheses))	tumor volume versus vehicle group ([1]; D3 ip 30 mg/kg 7 days then 60 mg/kg 5 days, p=0.033)	tumor growth inhibition ([1]; D3 ip 30 then 60 mg/kg, day 7)	tumor growth inhibition ([1]; D3 ip 30 then 60 mg/kg, day 9)	tumor growth inhibition ([1]; D3 ip 30 then 60 mg/kg, day 12)	tumor growth inhibition ([1]; D3 ip 30 then 60 mg/kg, end point day 14)	maximum tolerated dose (MTD) [2]	tumor growth inhibition ([1]; I3 30 mg/kg, day 6)	tumor growth inhibition ([1]; I3 30 mg/kg, day 8)	tumor growth inhibition ([1]; I3 30 mg/kg, day 10)	tumor growth inhibition ([1]; I3 30 mg/kg, day 13)	tumor growth inhibition ([1]; I3 30 mg/kg, end point day 14)	tumor volume versus vehicle group ([1]; I3 30 mg/kg, p=0.037)	tumor volume versus vehicle group ([1]; I3 60 mg/kg, p=0.000)	tumor growth inhibition ([1]; I3 60-80 mg/kg, day 6)	tumor growth inhibition ([1]; I3 60-80 mg/kg, day 8)	tumor growth inhibition ([1]; I3 60-80 mg/kg, day 10)	tumor growth inhibition ([1]; I3 60-80 mg/kg, day 13)	tumor growth inhibition ([1]; I3 60-80 mg/kg, end point day 14)
COCC1=C[C@@H](n2cnc3c(N)ncnc32)[C@H](O)[C@@H]1O [Compound 25, (1S,2R,5R)-5-(6-amino-9H-purin-9-yl)-3-(methoxymethyl)cyclopent-3-ene-1,2-diol hydrochloride]	as effectively as DZNep	60%	statistically significantly smaller	about 49%	~56%	~54%	~54%	higher	–	–	–	–	–	–	–	–	–	–	–	–
Nc1ncnc2c1ncn2[C@@H]1CC[C@@H](O)[C@H]1O [Compound I3, (1R,2S,3R)-3-(6-amino-9H-purin-9-yl)cyclopentane-1,2-diol]	–	–	–	–	–	–	–	–	about 40%	~43%	~31%	~35%	~34%	statistically significantly smaller	statistically significantly smaller	about 50%	~65%	~60%	~68%	~63%

— patent US20110237606A1, “3-Deazaneplanocin Derivatives” (AGENCY OF SCIENCE, TECHNOLOGY AND RESEARCH, priority 2008, published 2011)
